Assay results: patent EP0514268A1, “Substituted amino acid azetidinyl pyridone derivatives, their preparation and use as medicines” (LABORATORIOS DEL DR. ESTEVE, S.A., priority 1991, dated 1992)
Where two headings read alike, the source gives them in different places.

Key:
Staph. aureus ATCC 25178 = assay: Antimicrobial activity, agar dilution; format: cell-based, Staphylococcus aureus; conditions: Agar Dextrose dilutions, 37°C, 20 heures
Excerpt: (§1) L'activité pharmacologique antimicrobienne de ces composés a été étudiée selon les références exposées ci-dessous.
(§2) Activité pharmacologique antimicrobienne : G.L. Daquet et Y.A. Chabbect, techniques en bactériologie, Vol. 3, Flammarion Médecine-Sciences, Paris 1972, et W.B. Hugo et A.D. Rusell, Pharmaceutical Microbiology, Blackwell Scientific Publications, London, 1977.
(§3) Milieu de culture et solvant : Agar d'antibiotiques n° 1 (Oxoid CM 327) Bouillon de triptone-soja (Oxoid CM 129) Solution Physiologique Ringer 1/4 (Oxoid BR 52) Agar Dextrose (BBL 11165)
(§4) Microorganismes : "Bacillus subtilis" ATCC 6633 "Citrobacter freundii" ATCC 112606 "Enterobacter aerogenes" ATCC 15038 "Enterobacter cloacae" ATCC 23355 "Bacillus cereus" ATCC 1178 "Escherichia coli" ATCC 10799 "Escherichia coli" ATCC 23559 "Klebsiella pneumoniae" ATCC 10031 "Proteus vulgaris" ATCC 8427 "Morg. morganii" ATCC 8019 "Pseudomonas aeruginosa" ATCC 9721 "Pseudomonas aeruginosa" ATCC 10145 "Salmonella typhimurium" ATCC 14028 "Salmonella typhimurium" ATCC 6539 "Serratia marcescens" ATCC 13880 "Shigella flexnerii" ATCC 12022 "Staphylococcusepidermis" ATCC 155-1 "Staphylococcus aureus" ATCC 25178 "Streptococcus faecalis" ATCC 10541.
(§5) Chacun des microorganismes est ensemencé par strie dans des tubes d'Agar d'antibiotiques n° 1, et mis en incubation pendant 20 heures à 37°C. Ensuite, on prend une anse de culture, on ensemence dans un bouillon de Triptone-soja et on incube pendant 20 heures à 37°C. On dilue à 1/4 la culture obtenue avec une solution physiologique Ringer, de façon à obtenir une suspension normalisée de […] pour chaque organisme.
(§6) A partir d'une solution de 100 µg/ml, chaque produit est dilué dans l'Agar Dextrose (préalablement fondu et maintenu à 50°C) par dilutions successives de façon à obtenir les concentrations suivantes : 64-32-16-8-4-2-1-0,5-0,25-0,125 µg de dérivé/ml du milieu.
(§7) Postérieurement, chaque concentration de chaque produit est répartie dans des boîtes de Petri de 10 cm de diamètre, à raison de 10 ml de milieu par boîte et autant de boîtes que de microorganismes à tester.
(§8) Une fois le milieu refroidi, les boîtes sont ensemencées avec les inoculations à raison de 0,4 ml d'inoculation par boîte. On les étend avec une anse de Driglasky et on recueille le surnageant. Les boîtes ensemencées sont incubées à 37°C pendant 20 heures.
(§9) Les résultats obtenus sont décrits dans les tableaux suivants. Les concentrations sont données en µg/ml.

Ent. cloacae ATCC 23355 = assay: Antimicrobial activity, agar dilution; format: cell-based, Enterobacter cloacae; conditions: Agar Dextrose dilutions, 37°C, 20 heures
Excerpt: as §1, §2, §3, §4, §5, §6, §7, §8, §9

[1] = system: Ent. aerogenes ATCC 15038; assay: Antimicrobial activity, agar dilution; format: cell-based, Enterobacter aerogenes; conditions: Klebsiella aerogenes, ATCC15038, 20 h, Agar Dextrose dilutions, 37°C, 20 heures, read-out: Activité pharmacologique antimicrobienne (concentrations)
Excerpt: as §1, §2, §3, §4, §5, §6, §7, §8, §9

[2] = system: Strep. faecalis ATCC 10541; assay: Antimicrobial activity, agar dilution; format: cell-based, Streptococcus faecalis; conditions: Agar Dextrose dilutions, 37°C, 20 heures
Excerpt: as §1, §2, §3, §4, §5, §6, §7, §8, §9

Morg. morganii ATCC 8019 = assay: Antimicrobial activity, agar dilution; format: cell-based; conditions: Agar Dextrose dilutions, 37°C, 20 heures
Excerpt: as §1, §2, §3, §4, §5, §6, §7, §8, §9

[3] = system: Shigella flexnerii ATCC 12022; assay: Antimicrobial activity, agar dilution; format: cell-based; conditions: ATCC12022, 20 h, Agar Dextrose dilutions, 37°C, 20 heures, read-out: Activité pharmacologique antimicrobienne (concentrations)
Excerpt: as §1, §2, §3, §4, §5, §6, §7, §8, §9

Ps. aeruginosa ATCC 9721 = assay: Antimicrobial activity, agar dilution; format: cell-based; conditions: Pseudomonas aeruginosa, ATCC9721, 20 h, Agar Dextrose dilutions, 37°C, 20 heures, read-out: Activité pharmacologique antimicrobienne (concentrations)
Excerpt: as §1, §2, §3, §4, §5, §6, §7, §8, §9

[4] = system: Proteus vulgaris ATCC 8427; assay: Antimicrobial activity, agar dilution; format: cell-based; conditions: Agar Dextrose dilutions, 37°C, 20 heures
Excerpt: as §1, §2, §3, §4, §5, §6, §7, §8, §9

[5] = system: Bacillus subtilis ATCC 6633; assay: Antimicrobial activity, agar dilution; format: cell-based; conditions: ATCC6633, 20 h, Agar Dextrose dilutions, 37°C, 20 heures, read-out: Activité pharmacologique antimicrobienne (concentrations)
Excerpt: as §1, §2, §3, §4, §5, §6, §7, §8, §9

[6] = system: Staph. epidermidis ATCC 155-1; assay: Antimicrobial activity, agar dilution; format: cell-based; conditions: Agar Dextrose dilutions, 37°C, 20 heures
Excerpt: as §1, §2, §3, §4, §5, §6, §7, §8, §9

[7] = system: Bacillus cereus ATCC 11778; assay: Antimicrobial activity, agar dilution; format: cell-based; conditions: Agar Dextrose dilutions, 37°C, 20 heures
Excerpt: as §1, §2, §3, §4, §5, §6, §7, §8, §9

[8] = system: Escherichia coli ATCC 10799; assay: Antimicrobial activity, agar dilution; format: cell-based; conditions: Agar Dextrose dilutions, 37°C, 20 heures
Excerpt: as §1, §2, §3, §4, §5, §6, §7, §8, §9

[9] = system: Escherichia coli ATCC 23559; assay: Antimicrobial activity, agar dilution; format: cell-based; conditions: Agar Dextrose dilutions, 37°C, 20 heures
Excerpt: as §1, §2, §3, §4, §5, §6, §7, §8, §9

Sal. typhi ATCC 6539 = assay: Antimicrobial activity, agar dilution; format: cell-based; conditions: Salmonella enterica, 20 h, read-out: Activité pharmacologique antimicrobienne (concentrations)
Excerpt: as §1, §2, §3, §4, §5, §6, §7, §8, §9

[10] = system: Ps. aeruginosa ATCC 10145; assay: Antimicrobial activity, agar dilution; format: cell-based; conditions: Pseudomonas aeruginosa, ATCC10145, 20 h, Agar Dextrose dilutions, 37°C, 20 heures, read-out: Activité pharmacologique antimicrobienne (concentrations)
Excerpt: as §1, §2, §3, §4, §5, §6, §7, §8, §9

[11] = Solubility in water and at pH 7.4; format: physicochemical
Excerpt: Un grand nombre des composés de l'invention manifestent une augmentation de la solubilité dans l'eau ainsi que de la solubilité à pH 7,4 lorsqu'on compare avec les composés de référence. L'augmentation de solubilité au pH physiologique peut favoriser l'absorption du produit et la solubilité élevée dans l'eau permet l'administration du composé par voie parentérale.

[12] = system: Sal. typhimurium ATCC 14028; assay: Antimicrobial activity, agar dilution; format: cell-based, Salmonella typhimurium; conditions: Agar Dextrose dilutions, 37°C, 20 heures
Excerpt: as §1, §2, §3, §4, §5, §6, §7, §8, §9

[13] = system: Serr. marcescens ATCC 13880; assay: Antimicrobial activity, agar dilution; format: cell-based, Serratia marcescens; conditions: Agar Dextrose dilutions, 37°C, 20 heures
Excerpt: as §1, §2, §3, §4, §5, §6, §7, §8, §9

[14] = system: Citr. freundii ATCC 11606; assay: Antimicrobial activity, agar dilution; format: cell-based, Citrobacter freundii; conditions: Agar Dextrose dilutions, 37°C, 20 heures
Excerpt: as §1, §2, §3, §4, §5, §6, §7, §8, §9

[15] = system: Kleb. pneumoniae ATCC 10031; assay: Antimicrobial activity, agar dilution; format: cell-based, Klebsiella pneumoniae; conditions: Agar Dextrose dilutions, 37°C, 20 heures
Excerpt: as §1, §2, §3, §4, §5, §6, §7, §8, §9

C[C@H](N)C(=O)N[C@@H]1CN(c2nc3c(cc2F)c(=O)c(C(=O)O)cn3C2CC2)[C@H]1C [Exemple 4aA, chlorhydratede l'acide 7-[(2S,3R)-2-méthyl-3-Ala-amino-1-azétidinyl]-1-cyclopropyl-6-fluoro-1,4-dihydro-4-oxo-1,8-naphtyridine-3-carboxylique]
Activité pharmacologique antimicrobienne (concentrations) (Staph. aureus ATCC 25178): 0,25 µg/ml
MIC (Staph. aureus ATCC 25178; Staphylococcus aureus, ATCC25178, 20 h, read-out: Activité pharmacologique antimicrobienne (concentrations)): 0.5 µg/mL
Activité pharmacologique antimicrobienne (concentrations) (Ent. cloacae ATCC 23355): 0,12 µg/ml
Activité pharmacologique antimicrobienne (concentrations) (Ent. cloacae ATCC 23355; listed as 4aa): 0,25 µg/ml
MIC [1]: 0.5 µg/mL
Activité pharmacologique antimicrobienne (concentrations) [2]: 8 µg/ml
Activité pharmacologique antimicrobienne (concentrations) ([2]; listed as 4aa): 1 µg/ml
Activité pharmacologique antimicrobienne (concentrations) (Morg. morganii ATCC 8019): 0,5 µg/ml
Activité pharmacologique antimicrobienne (concentrations) (Morg. morganii ATCC 8019; listed as 4aa): 2 µg/ml
MIC [3]: 0.12 µg/mL
MIC (Ps. aeruginosa ATCC 9721): 4 µg/mL
Activité pharmacologique antimicrobienne (concentrations) [4]: 2 µg/ml
MIC ([4]; Proteus vulgaris, ATCC8427, 20 h, read-out: Activité pharmacologique antimicrobienne (concentrations)): 1 µg/mL
MIC [5]: 0.12 µg/mL
Activité pharmacologique antimicrobienne (concentrations) [6]: 1 µg/ml
MIC ([6]; Staphylococcus epidermidis, ATCC155, 20 h, read-out: Activité pharmacologique antimicrobienne (concentrations)): 0.5 µg/mL
Activité pharmacologique antimicrobienne (concentrations) [7]: 0,5 µg/ml
MIC ([7]; Bacillus cereus, ATCC11778, 20 h, read-out: Activité pharmacologique antimicrobienne (concentrations)): 1 µg/mL
Activité pharmacologique antimicrobienne (concentrations) [8]: 1 µg/ml
MIC ([8]; Escherichia coli, ATCC10799, 20 h, read-out: Activité pharmacologique antimicrobienne (concentrations)): 0.5 µg/mL
Activité pharmacologique antimicrobienne (concentrations) [9]: 0,12 µg/ml
Activité pharmacologique antimicrobienne (concentrations) ([9]; listed as 4aa): 0,25 µg/ml
MIC (Sal. typhi ATCC 6539): 0.5 µg/mL
MIC [10]: 8 µg/mL
solubility ([11]; pH 7,4, read-out: Solubilité pH 7,4): > 500 µg/mL
solubility ([11]; water, read-out: Solubilité dans l'eau): > 500 µg/mL
Activité pharmacologique antimicrobienne (concentrations) [12]: 1 µg/ml
MIC ([12]; Salmonella enterica, 20 h, read-out: Activité pharmacologique antimicrobienne (concentrations)): 0.5 µg/mL
Activité pharmacologique antimicrobienne (concentrations) [13]: 1 µg/ml
Activité pharmacologique antimicrobienne (concentrations) ([13]; listed as 4aa): 4 µg/ml
Activité pharmacologique antimicrobienne (concentrations) [14]: 0,5 µg/ml
MIC ([14]; Citrobacter freundii, ATCC11606, 20 h, read-out: Activité pharmacologique antimicrobienne (concentrations)): 0.25 µg/mL
Activité pharmacologique antimicrobienne (concentrations) [15]: 0,06 µg/ml
Activité pharmacologique antimicrobienne (concentrations) ([15]; listed as 4aa): 0,5 µg/ml
